Assay results taken from patent US20070049564A1 (Wyeth, priority 2005, published 2007).
Converted amounts (≈) assume the structure as drawn. Where two headings read alike, the source gives them in different places.

Legend:
S. typhimurium GC 2172 = experiment: MIC, broth microdilution; conditions: Salmonella enterica, TYPHIMURIUM, S. typhimurium GC 2172
c. albicans GC 3066 = experiment: MIC, broth microdilution
S. aureus GC 6467 = experiment: MIC, broth microdilution; conditions: Staphylococcus aureus, GC6467, S. aureus GC 6467
E. faecium GC 4556 = experiment: MIC, broth microdilution; conditions: Enterococcus faecium, GC4556, E. faecium GC 4556
S. aureus GC 6466 = experiment: MIC, broth microdilution; conditions: Staphylococcus aureus, GC6466, S. aureus GC 6466
Protocol: (§1) Antimicrobial susceptibility testing. The in vitro activities of the antibiotics are determined by the broth microdilution method as recommended by the National Committee for Clinical Laboratory Standards (NCCLS) (1). Mueller-Hinton II broth (MHBII)(BBL Cockeysville, Md.) is the medium employed in the testing procedures. Microtiter plates containing serial dilutions of each antimicrobial agent are inoculated with each organism to yield the appropriate density (10^5 CFU/ml) in a 100 μl final volume. The plates are incubated for 18-22 hours at 35° C. in ambient air. […] Standard Pharmacological Test Procedures
(§2) Presented in Tables I-XIII are representative compounds of Formula I which were evaluated against a panel of 40 selected gram-positive and gram-negative bacteria strains by pre-incubation in water, mouse serum or human serum. Representative compounds were first incubated in mouse serum for an hour prior to the in vitro testing against a panel of selected gram-positive and gram-negative bacteria strains. All compounds were also pre-incubated in water for an hour prior to testing as control. Representative compounds of Formula I were incubated in human serum prior to MIC determination.

E. coli GC 1073 = experiment: MIC, broth microdilution; conditions: Escherichia coli, GC1073, E. coli GC 1073
S. aureus GC 1079 = experiment: MIC, broth microdilution; conditions: Staphylococcus aureus, GC1079, S. aureus GC 1079
S. aureus GC 4536 = experiment: MIC, broth microdilution; conditions: Staphylococcus aureus, GC4536, S. aureus GC 4536
Protocol: (§3) Antimicrobial susceptibility testing. The in vitro activities of the antibiotics are determined by the broth microdilution method as recommended by the National Committee for Clinical Laboratory Standards (NCCLS) (1). Mueller-Hinton II broth (MHBII)(BBL Cockeysville, Md.) is the medium employed in the testing procedures. Microtiter plates containing serial dilutions of each antimicrobial agent are inoculated with each organism to yield the appropriate density (10^5 CFU/ml) in a 100 μl final volume. The plates are incubated for 18-22 hours at 35° C. in ambient air.
Representative compounds were first incubated in mouse serum for an hour prior to the in vitro testing against a panel of selected gram-positive and gram-negative bacteria strains. All compounds were also pre-incubated in water for an hour prior to testing as control. Representative compounds of Formula I were incubated in human serum prior to MIC determination.

S. aureus GC 6469 = experiment: MIC, broth microdilution; conditions: Staphylococcus aureus, GC6469, S. aureus GC 6469
E. faecium GC 2243 = experiment: MIC, broth microdilution; conditions: Enterococcus faecium, GC2243, E. faecium GC 2243
Protocol: as §3
Representative compounds were first incubated in mouse serum for an hour prior to the in vitro testing against a panel of selected gram-positive and gram-negative bacteria strains. All compounds were also pre-incubated in water for an hour prior to testing as control.

E. coli GC 2270 = experiment: MIC, broth microdilution; conditions: Escherichia coli, GC2270, E. coli GC 2270
E. coli GC 2233 = experiment: MIC, broth microdilution; conditions: Escherichia coli, GC2233, E. coli GC 2233
S. aureus GC 2216 = experiment: MIC, broth microdilution; conditions: Staphylococcus aureus, GC2216, S. aureus GC 2216
Protocol: as §1, §2

E. faecalis GC 2242 = experiment: MIC, broth microdilution; conditions: Enterococcus faecalis, GC2242, E. faecalis GC 2242
E. coli GC 2235 = experiment: MIC, broth microdilution; conditions: Escherichia coli, GC2235, E. coli GC 2235
E. coli = experiment: Range of MIC for E. coli strains; conditions: Escherichia coli
Staph. = experiment: Range of MIC for Staph. strains, including MRSA; conditions: Staphylococcus aureus
E. coli GC 6465 = experiment: MIC, broth microdilution; conditions: Escherichia coli, GC6465, E. coli GC 6465
E. coli GC 4560 = experiment: MIC, broth microdilution; conditions: Escherichia coli, GC4560, E. coli GC 4560
E. coli GC 2231 = experiment: MIC, broth microdilution; conditions: Escherichia coli, GC2231, E. coli GC 2231
[1] = c. albicans GC 3066, Water pre-incubation
[2] = 20 h, read-out: Range of MIC, E. coli (Mouse Serum)
[3] = MRSA, read-out: Range of MIC, Staph (Mouse Serum)
[4] = MRSA, read-out: Range of MIC, Staph (Water)

## CCCCN(CC(=O)Nc1cc(N(C)C)c2c(c1O)C(=O)C1=C(O)[C@]3(O)C(=O)C(C(N)=O)=C(O)[C@@H](N(C)C)[C@@H]3C[C@@H]1C2)C(=O)OCOC(=O)c1ccc(F)cc1 [Example 4, ({[(2-{[(5aR,6aS,7S,10aS)-9-(aminocarbonyl)-4,7-bis(dimethylamino)-1,8,10a,11-tetrahydroxy-10,12-dioxo-5,5a,6,6a,7,10,10a,12-octahydrotetracen-2-yl]amino}-2-oxoethyl)(butyl)amino]carbonyl}oxy)methyl 4-fluorobenzoate]
S. typhimurium GC 2172; Mouse Serum pre-incubation
  MIC: 4 µg/mL (≈ 5.12 µM)
S. typhimurium GC 2172; Water pre-incubation
  MIC: > 64 µg/mL
c. albicans GC 3066; Candida albicans, GC3066
  MIC: > 64 µg/mL
c. albicans GC 3066; [1]
  MIC: >64 UG/ML
S. aureus GC 6467; Mouse Serum pre-incubation
  MIC: 2 µg/mL (≈ 2.56 µM)
S. aureus GC 6467; Water pre-incubation
  MIC: 8 µg/mL (≈ 10.2 µM)
E. faecium GC 4556; Mouse Serum pre-incubation
  MIC: 1 µg/mL (≈ 1.28 µM)
E. faecium GC 4556; Water pre-incubation
  MIC: 4 µg/mL (≈ 5.12 µM)
S. aureus GC 6466; Mouse Serum pre-incubation
  MIC: 0.5 µg/mL (≈ 0.64 µM)
S. aureus GC 6466; Water pre-incubation
  MIC: 2 µg/mL (≈ 2.56 µM)
E. coli GC 1073; Mouse Serum pre-incubation
  MIC: 1 µg/mL (≈ 1.28 µM)
E. coli GC 1073; Water pre-incubation
  MIC: > 64 µg/mL
S. aureus GC 1079; Mouse Serum pre-incubation
  MIC: 1 µg/mL (≈ 1.28 µM)
S. aureus GC 1079; Water pre-incubation
  MIC: 4 µg/mL (≈ 5.12 µM)
S. aureus GC 4536; Mouse Serum pre-incubation
  MIC: 1 µg/mL (≈ 1.28 µM)
S. aureus GC 4536; Water pre-incubation
  MIC: 4 µg/mL (≈ 5.12 µM)
S. aureus GC 6469; Mouse Serum pre-incubation
  MIC: 2 µg/mL (≈ 2.56 µM)
S. aureus GC 6469; Water pre-incubation
  MIC: 16 µg/mL (≈ 20.5 µM)
E. faecium GC 2243; Mouse Serum pre-incubation
  MIC: 0.5 µg/mL (≈ 0.64 µM)
E. faecium GC 2243; Water pre-incubation
  MIC: 2 µg/mL (≈ 2.56 µM)
E. coli GC 2270; Mouse Serum pre-incubation
  MIC: 1 µg/mL (≈ 1.28 µM)
E. coli GC 2270; Water pre-incubation
  MIC: 64 µg/mL (≈ 81.9 µM)
E. coli GC 2233; Mouse Serum pre-incubation
  MIC: 1 µg/mL (≈ 1.28 µM)
E. coli GC 2233; Water pre-incubation
  MIC: 64 µg/mL (≈ 81.9 µM)
S. aureus GC 2216; Mouse Serum pre-incubation
  MIC: 0.5 µg/mL (≈ 0.64 µM)
S. aureus GC 2216; Water pre-incubation
  MIC: 4 µg/mL (≈ 5.12 µM)
E. faecalis GC 2242; Mouse Serum pre-incubation
  MIC: 1 µg/mL (≈ 1.28 µM)
E. faecalis GC 2242; Water pre-incubation
  MIC: 4 µg/mL (≈ 5.12 µM)
E. coli GC 2235; Mouse Serum pre-incubation
  MIC: 1 µg/mL (≈ 1.28 µM)
E. coli GC 2235; Water pre-incubation
  MIC: 64 µg/mL (≈ 81.9 µM)
E. coli; [2]
  MIC: 0.5 to 2 µg/mL (≈ 0.64 to 2.56 µM)
E. coli; read-out: Minimum inhibitory concentration (MIC), E. coli (Human Serum)
  MIC: 8 to 32 µg/mL (≈ 10.2 to 40.9 µM)
E. coli; read-out: Minimum inhibitory concentration (MIC), E. coli (mouse serum)
  MIC: 0.5 to 2 µg/mL (≈ 0.64 to 2.56 µM)
Staph.; MRSA, read-out: Minimum inhibitory concentration (MIC), Staph. (mouse serum)
  MIC: 0.5 to 2 µg/mL (≈ 0.64 to 2.56 µM)
Staph.; MRSA, read-out: Minimum inhibitory concentration (MIC), Staph. (water)
  MIC: 2 to 16 µg/mL (≈ 2.56 to 20.5 µM)
Staph.; [3]
  MIC: 0.5 to 2 µg/mL (≈ 0.64 to 2.56 µM)
Staph.; [4]
  MIC: 2 to 16 µg/mL (≈ 2.56 to 20.5 µM)
Staph.; read-out: Minimum inhibitory concentration (MIC), Staph (Human Serum)
  MIC: 0.5 to 4 µg/mL (≈ 0.64 to 5.12 µM)
Staph.; read-out: Minimum inhibitory concentration (MIC), Staph (Water)
  MIC: 2 to 8 µg/mL (≈ 2.56 to 10.2 µM)
E. coli GC 6465; Mouse Serum pre-incubation
  MIC: 4 µg/mL (≈ 5.12 µM)
E. coli GC 6465; Water pre-incubation
  MIC: > 64 µg/mL
E. coli GC 4560; Mouse Serum pre-incubation
  MIC: 0.25 µg/mL (≈ 0.32 µM)
E. coli GC 4560; Water pre-incubation
  MIC: 8 µg/mL (≈ 10.2 µM)
E. coli GC 2231; Mouse Serum pre-incubation
  MIC: 1 µg/mL (≈ 1.28 µM)
E. coli GC 2231; Water pre-incubation
  MIC: 64 µg/mL (≈ 81.9 µM)

## CCCN(CC(=O)Nc1cc(N(C)C)c2c(c1O)C(=O)C1=C(O)[C@]3(O)C(=O)C(C(N)=O)=C(O)[C@@H](N(C)C)[C@@H]3C[C@@H]1C2)C(=O)OCOC(=O)c1ccc(C)cc1 [Example 5, ({[(2-{[(5aR,6aS,7S,10aS)-9-(aminocarbonyl)-4,7-bis(dimethylamino)-1,8,10a,11-tetrahydroxy-10,12-dioxo-5,5a,6,6a,7,10,10a,12-octahydrotetracen-2-yl]amino}-2-oxoethyl)(propyl)amino]carbonyl}oxy)methyl 4-methylbenzoate]
S. typhimurium GC 2172; Mouse Serum pre-incubation
  MIC: 8 µg/mL (≈ 10.5 µM)
S. typhimurium GC 2172; Water pre-incubation
  MIC: > 64 µg/mL
c. albicans GC 3066; Candida albicans, GC3066
  MIC: > 64 µg/mL
c. albicans GC 3066; [1]
  MIC: >64 UG/ML
S. aureus GC 6467; Mouse Serum pre-incubation
  MIC: 2 µg/mL (≈ 2.62 µM)
S. aureus GC 6467; Water pre-incubation
  MIC: 4 µg/mL (≈ 5.24 µM)
E. faecium GC 4556; Mouse Serum pre-incubation
  MIC: 1 µg/mL (≈ 1.31 µM)
E. faecium GC 4556; Water pre-incubation
  MIC: 2 µg/mL (≈ 2.62 µM)
S. aureus GC 6466; Mouse Serum pre-incubation
  MIC: 0.25 µg/mL (≈ 0.327 µM)
S. aureus GC 6466; Water pre-incubation
  MIC: 0.5 µg/mL (≈ 0.655 µM)
E. coli GC 1073; Mouse Serum pre-incubation
  MIC: 2 µg/mL (≈ 2.62 µM)
E. coli GC 1073; Water pre-incubation
  MIC: 32 µg/mL (≈ 41.9 µM)
S. aureus GC 1079; Mouse Serum pre-incubation
  MIC: 2 µg/mL (≈ 2.62 µM)
S. aureus GC 1079; Water pre-incubation
  MIC: 2 µg/mL (≈ 2.62 µM)
S. aureus GC 4536; Mouse Serum pre-incubation
  MIC: 1 µg/mL (≈ 1.31 µM)
S. aureus GC 4536; Water pre-incubation
  MIC: 1 µg/mL (≈ 1.31 µM)
S. aureus GC 6469; Mouse Serum pre-incubation
  MIC: 2 µg/mL (≈ 2.62 µM)
S. aureus GC 6469; Water pre-incubation
  MIC: 4 µg/mL (≈ 5.24 µM)
E. faecium GC 2243; Mouse Serum pre-incubation
  MIC: 0.5 µg/mL (≈ 0.655 µM)
E. faecium GC 2243; Water pre-incubation
  MIC: 1 µg/mL (≈ 1.31 µM)
E. coli GC 2270; Mouse Serum pre-incubation
  MIC: 1 µg/mL (≈ 1.31 µM)
E. coli GC 2270; Water pre-incubation
  MIC: 16 µg/mL (≈ 20.9 µM)
E. coli GC 2233; Mouse Serum pre-incubation
  MIC: 2 µg/mL (≈ 2.62 µM)
E. coli GC 2233; Water pre-incubation
  MIC: 32 µg/mL (≈ 41.9 µM)
S. aureus GC 2216; Mouse Serum pre-incubation
  MIC: 0.5 µg/mL (≈ 0.655 µM)
S. aureus GC 2216; Water pre-incubation
  MIC: 2 µg/mL (≈ 2.62 µM)
E. faecalis GC 2242; Mouse Serum pre-incubation
  MIC: 1 µg/mL (≈ 1.31 µM)
E. faecalis GC 2242; Water pre-incubation
  MIC: 2 µg/mL (≈ 2.62 µM)
E. coli GC 2235; Mouse Serum pre-incubation
  MIC: 1 µg/mL (≈ 1.31 µM)
E. coli GC 2235; Water pre-incubation
  MIC: 16 µg/mL (≈ 20.9 µM)
E. coli; [2]
  MIC: 1 to 2 µg/mL (≈ 1.31 to 2.62 µM)
E. coli; read-out: Range of MIC, E. coli (Water)
  MIC: 16 to 64 µg/mL (≈ 20.9 to 83.8 µM)
E. coli; read-out: Range of MIC, E. coli (mouse serum)
  MIC: 1 to 2 µg/mL (≈ 1.31 to 2.62 µM)
E. coli; read-out: Range of MIC, E. coli (water)
  MIC: 16 to 64 µg/mL (≈ 20.9 to 83.8 µM)
Staph.; [3]
  MIC: 0.25 to 2 µg/mL (≈ 0.327 to 2.62 µM)
Staph.; [4]
  MIC: 0.5 to 4 µg/mL (≈ 0.655 to 5.24 µM)
Staph.; MRSA, read-out: Range of MIC, Staph. (mouse serum)
  MIC: 0.25 to 2 µg/mL (≈ 0.327 to 2.62 µM)
Staph.; MRSA, read-out: Range of MIC, Staph. (water)
  MIC: 0.5 to 4 µg/mL (≈ 0.655 to 5.24 µM)
E. coli GC 6465; Mouse Serum pre-incubation
  MIC: 8 µg/mL (≈ 10.5 µM)
E. coli GC 6465; Water pre-incubation
  MIC: > 64 µg/mL
E. coli GC 4560; Mouse Serum pre-incubation
  MIC: 0.5 µg/mL (≈ 0.655 µM)
E. coli GC 4560; Water pre-incubation
  MIC: 4 µg/mL (≈ 5.24 µM)
E. coli GC 2231; Mouse Serum pre-incubation
  MIC: 2 µg/mL (≈ 2.62 µM)
E. coli GC 2231; Water pre-incubation
  MIC: 64 µg/mL (≈ 83.8 µM)
